Source: patent US6623741B1, “Methods and compositions for inhibition of membrane fusion-associated events including RSV transmission” (Trimeris, Inc., priority 2000, dated 2003)
Entries after “also recorded” stand apart in the source; their conditions may differ. Like-named read-outs stand apart in the source and are kept apart here.

Experiments:
[1] = biological target: T1, DP107-like domain of the RSV F1-protein (MF5.1 fusion protein) (Human respiratory syncytial virus A, UniProt P03420); experiment: biochemical; format: binding
T1 construct: made in house
Description: (§1) After incubation and washing, unbound Fab-d is removed from the plates and bound Fab-d is quantitated. A no-inhibitor control should also be conducted.
(§2) Such an assay takes advantage of accepted radioligand and receptor binding principles. (See, for example, Yamamura, H. I. et al., 1985, “Neurotransmitter Receptor Binding”, 2nd ed., Raven Press, NY.) As above, M41Δ78 is immobilized onto a solid support such as a microtiter well. […] Specific binding to M41Δ78 is defined as the difference of the binding of the labeled DP178 preparation in the microtiter wells (totals) and the binding in identical wells containing, in addition, excess unlabeled DP178 (nonspecifics).
Specifically, the DNA sequence corresponding amino acid residues 142-302 of the RSV F1 protein was amplified by PCR and cloned into the Xmn I site of the expression vector pMal-p2 (New England Biolab) to give MF5.1. These amino acid residues correspond to the extracellular domain of the RSV F1 protein including its DP107 region but excluding the DP178 region.
Cell fusion assays were performed with each of the peptides as described in Section 17 above.

[2] = tested on: HIV-1 (HIV-1LAI, HIV-1MN, HIV-1RF, HIV-1SF2); format: cell-based
Description: Approximately 7×10^4 Molt cells were incubated with 1×10^4 CEM cells chronically infected with the HIV-1LAI virus in 96-well plates (one-half area cluster plates; Costar, Cambridge, Mass.) in a final volume of 100 μl culture medium as previously described (Matthews, T. J. et al., 1987, Proc. Natl. Acad. Sci. USA 84: 5424-5428). Peptide inhibitors were added in a volume of 10 μl and the cell mixtures were incubated for 24 hr. at 37° C. At that time, multinucleated giant cells were estimated by microscopic examination at a 40× magnification which allowed visualization of the entire well in a single field.
The initial screen for antiviral activity assayed peptides' ability to block syncytium formation induced by overnight co-cultivation of uninfected Molt 4 cells with chronically HIV-1 infected CEM cells. […] In the first of these experiments, serial DP178 (SEQ ID NO:15) peptide concentrations between 10 μg/ml and 12.5 ng/ml were tested for blockade of the cell fusion process. For these experiments, CEM cells chronically infected with either HIV-1LAI, HIV-1MN, HIV-1RF, or HIV-1SF2 virus were cocultivated overnight with uninfected Molt 4 cells.
The next series of experiments involved the preparation and testing of a DP178 (SEQ ID NO:15) homolog for its ability to inhibit HIV-1-induced syncytia formation.
(§3) The next series of experiments involved a comparison of DP178 (SEQ ID NO:15) HIV-1 and HIV-2 inhibitory activity.

HIV-2 = experiment: Cell fusion assay: HIV-2 mediated syncytia formation; format: cell-based
Description: as §3

HIV-1LAI = conditions: for IC50 (RT production): CEM cells, 7 days
Description: Cell Free Virus Infection Assay:
(§4) Synthetic peptides were incubated at 37° C. with either 247 TCID50 (for experiment depicted in FIG. 2), or 62 TCID50 (for experiment depicted in FIG. 3) units of HIV-1LAI virus or 25 TCID50 units of HIV-2^NIHZ and CEM CD4^+ cells at peptide concentrations of 0, 0.04, 0.4, 4.0, and 40 μg/ml for 7 days. The resulting reverse transcriptase (RT) activity in counts per minute was determined using the assay described, below, in Section 6.1.5. See, Reed, L. J. et al., 1938, Am. J. Hyg. 27: 493-497 for an explanation of TCID50 calculations.
Reverse Transcriptase Assay:
(§5) The micro-reverse transcriptase (RT) assay was adapted from Goff et al. (Goff, S. et al., 1981, J. Virol. 38:239-248) and Willey et al. (Willey, R. et al., 1988, J. Virol. 62:139-147). Supernatants from virus/cell cultures are adjusted to 1% Triton-X100. A 10 μl sample of supernatant was added to 50 μl of RT cocktail in a 96-well U-bottom microtitre plate and the samples incubated at 37° C. for 90 min. The RT cocktail contained 75 mM KCl, 2 mM dithiothreitol, 5 mM MgCl2, 5 μg/ml poly A (Pharmacia, cat. No. 27-4110-01), 0.25 units/ml oligo dT (Pharmacia, cat. No. 27-7858-01), 0.05% NP40, 50 mM Tris-HCl, pH 7.8, 0.5 μM non-radioactive dTTP, and 10 μCi/ml ^32P-dTTP (Amersham, cat. No. PB. 10167).
After the incubation period, 40 μl of reaction mixture was applied to a Schleicher and Schuell (S+S) NA45 membrane (or DE81 paper) saturated in 2×SSC buffer (0.3 M NaCl and […] sodium citrate) held in a S+S Minifold over one sheet of GB003 (S+S) filter paper, with partial vacuum applied. Each well of the minifold was washed four times with 200 μl 2×SSC, under full vacuum. The membrane was removed from the minifold and washed 2 more times in a pyrex dish with an excess of 2×SSC. Finally, the membrane was drained on absorbent paper, placed on Whatman #3 paper, covered with Saran wrap, and exposed to film overnight at −70° C.
DP178 (SEQ ID NO:15) was next tested for its ability to block CD-4^+ CEM cell infection by cell-free HIV-1 virus. […]

HIV-2NIHZ = experiment: Cell free virus infection assay (RT production, CEM cells); format: cell-based
Description: as §4
as §5, with “10167). […]” for “10167).”

HIV-1IIIB [3] = format: cell-based; conditions: for IC90: HIV-1 induced membrane fusion, read-out: Cell Fusion (IC90)
Description: Cell Fusion Assays For Anti-HIV Activity:
Cell fusion assays were performed as previously described (Matthews et al., 1987, Proc. Natl. Acad. Sci. USA 84: […]). CEM cells (7×10^4) were incubated with HIV-1IIIB chronically infected CEM cells (10^4) in 96-well flat-bottomed half-area plates (Costar) in 100 μl culture medium. Peptide and fusion proteins at various concentrations in 10 μl culture medium were incubated with the cell mixtures at 37° C. for 24 hours. Multinucleated syncytia were estimated with microscopic examination.

[4] = tested on: Fab-d (human recombinant Fab); experiment: ELISA analysis of Fab-d binding / DP178 binding to the leucine zipper motif of gp41; conditions: reagent alone
Description: ELISA Analysis of DP178 Binding to the Leucine Zipper Motif of gp41:
Each well was washed three times with distilled water then blocked with 3% bovine serum albumin (BSA) for 2 hours. After blocking, peptides with 0.5% BSA in TBST (40 mM Tris-HCl pH7.5, 150 mM NaCl, 0.05% Tween 20) were added to the ELISA plates and incubated at room temperature for 1 hour. After washing three times with TBST, Fab-d was added at a concentration of 10 ng/ml with 0.5% BSA in TBST. The plates were washed three times with TBST after incubation at room temperature for 1 hour. Horseradish peroxidase (HRP) conjugated goat antihuman Fab antiserum at a 2000 fold dilution in TBST with 0.5% BSA was added to each well and incubated at room temperature for 45 minutes. The plates were then washed four times with TBST. The peroxidase substrate o-phenylene diamine (2.5 mg/ml) and 0.15% H2O2 were added to develop the color. The reaction was stopped with an equal volume of 4.5 N H2SO4 after incubation at room temperature for 10 minutes. The optical density of the stopped reaction mixture was measured with a micro plate reader (Molecular Design) at 490 nm.

HIV-1IIIB [5] = tested on: HIV-1IIIB
[6] = Cell proliferation and toxicity assay; format: cell-based; conditions: human, CEM cells
Description: (§6) Cell proliferation and toxicity assay: Approximately 3.8×10^5 CEM cells for each peptide concentration were incubated for 3 days at 37° C. in T25 flasks. Peptides tested were DP178 (SEQ ID NO:15) and DP-116 (SEQ ID NO:1552), as described in FIG. 1. Peptides were synthesized as described, above, in Section 6.1. The concentrations of each peptide used were 0, 2.5, 10, and 40 μg/ml. Cell counts were taken at incubation times of 0, 24, 48, and 72 hours.
(§7) CEM cells were incubated in the presence of varying concentrations of DP178 (SEQ ID NO:15), and DP-116 (SEQ ID NO:1552), a peptide previously shown to be ineffective as an HIV inhibitor (Wild, C. et al., 1992, Proc. Natl. Acad. Sci. USA 89:10,537-10,541). Additionally, cells were incubated in the absence of either peptide.

CEM cells = experiment: Cell proliferation and toxicity assay; format: cell-based
Description: as §6, §7

[7] = biological target: T2, M41Δ178 fusion protein (DP107 domain of HIV gp41) (Human immunodeficiency virus type 1 group M subtype B, UniProt P03377); experiment: biochemical; format: binding, HIV-1
T2 construct: made by cloning the DNA fragment corresponding to gp41 amino acids 540-642 into the Xmn I site of pMal-p2; made in house
Description: as §1, §2

T2 sequence (P03377 540-642, stated change not applied): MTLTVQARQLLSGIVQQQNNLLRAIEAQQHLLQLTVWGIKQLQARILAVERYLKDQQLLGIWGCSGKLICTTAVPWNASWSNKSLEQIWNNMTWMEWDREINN
T1 sequence (P03420 142-302): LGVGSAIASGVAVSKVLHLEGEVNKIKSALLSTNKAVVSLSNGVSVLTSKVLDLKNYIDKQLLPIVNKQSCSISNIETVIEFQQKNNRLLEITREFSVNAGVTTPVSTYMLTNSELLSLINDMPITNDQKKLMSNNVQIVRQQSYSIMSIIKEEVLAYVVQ

In the case of “Ac-VYPSDEFDASISQVNEKINQALAYIRKADELLHNV-NH2 [Peptide T1091]”, the “binding affinity relative to T112” value [1] is reported as “approximately ten-fold less”.

With Enfuvirtide the “concentration affording complete protection against syncytium formation (lowest concentration tested)” value ([2]; HIV-1LAI infected CEM + Molt 4 cells) was at most 12.5 ng/mL, the “concentration affording complete protection against syncytium formation (lowest concentration tested)” value ([2]; HIV-1MN, HIV-1RF, HIV-1SF2 infected CEM + Molt 4 cells) was at most 100 ng/mL and the “concentration completely blocking virus-induced syncytia formation (lowest effective inhibitory concentration)” value ([2]; HIV-1 mediated CD-4+ cell-cell fusion) was 1 to 10 ng/mL. The “concentration blocking HIV-1-mediated syncytia formation” value ([2]; HIV-1 vs HIV-2 comparison, FIG. 5) was “below 1 ng/ml”, the “selectivity as inhibitor of HIV-1-mediated over HIV-2 mediated cell fusion” value (HIV-2) was 4 log and the “concentration failing to block HIV-2 mediated syncytia formation” value (HIV-2; FIG. 5) was over 10 µg/mL. For the same substance, the “IC50 (RT production)” value (HIV-1LAI; 62 TCID50 HIV-1LAI) was “about 31 ng/ml”, the “IC50 (RT production)” value (HIV-1LAI; 247 TCID50 HIV-1LAI) was 0.09 µg/mL and the “IC50 for HIV-2NIHZ (in words)” value (HIV-2NIHZ; 25 TCID50 HIV-2NIHZ, CEM cells, 7 days) was “much higher IC50”. The “potency as HIV-1 inhibitor versus HIV-2 inhibitor” value (HIV-2NIHZ; cell-free infection) was “two logs more potent”, the “syncytia in the presence of the peptide” value (HIV-1IIIB [3]; 10 nM) was “no observable syncytia” and the IC90 (HIV-1IIIB [3]) was 1 nM. For the same substance, the “Fab-d binding (in words)” value [4] was “failed to bind” and the IC90 (HIV-1IIIB [5]; 1IIIB) was 80 nM.

In the case of “Ac-NNLLRAIEAQQHLLQLTVWGIKQLQARILAVERYLKDQ-NH2 [DP107]”, the IC90 (HIV-1IIIB [3]) is reported as 1000 nM and the IC90 (HIV-1IIIB [5]; read-out: HIV-infectivity (IC90), HIV-1IIIB) is reported as 1000 nM.

In the case of “Ac-LQARILAVERYLKDQQQ-NH2 [DP-116, reference compound]”, the “inhibition of HIV-1 cell free virus infection (in words)” value (HIV-1LAI; FIG. 1 legend) is reported as “negative for inhibition of HIV-1 infection”, the viability at 0 h, 2.5 µg/mL ([6]; 2.5 μg/ml, 0 hours) is reported as 98% and the viability at 24 h, 2.5 µg/mL ([6]; 2.5 μg/ml, 24 hours) is reported as 96%. The viability at 48 h, 2.5 µg/mL ([6]; 2.5 μg/ml, 48 hours) was 98%, the viability at 72 h, 2.5 µg/mL ([6]; 2.5 μg/ml, 72 hours) was 99% and the viability at 0 h, 10 µg/mL ([6]; 10 μg/ml, 0 hours) was 98%. The viability at 24 h, 10 µg/mL ([6]; 10 μg/ml, 24 hours) was 95%, the viability at 48 h, 10 µg/mL ([6]; 10 μg/ml, 48 hours) was 93% and the viability at 72 h, 10 µg/mL ([6]; 10 μg/ml, 72 hours) was 98%. The viability at 0 h, 40 µg/mL ([6]; 40 μg/ml, 0 hours) was 98%, the viability at 24 h, 40 µg/mL ([6]; 40 μg/ml, 24 hours) was 95% and the viability at 48 h, 40 µg/mL ([6]; 40 μg/ml, 48 hours) was 98%. The viability at 72 h, 40 µg/mL ([6]; 40 μg/ml, 72 hours) was 97%.

In the case of enfuvirtide, the “% Viability” value (CEM cells; 2.5 μg/ml, 0 hours) is reported as 98%, the “% Viability” value (CEM cells; 2.5 μg/ml, 24 hours) is reported as 93% and the “% Viability” value (CEM cells; 2.5 μg/ml, 48 hours) is reported as 96%. For the same substance, the “% Viability” value (CEM cells; 2.5 μg/ml, 72 hours) was 96%, the “% Viability” value (CEM cells; 10 μg/ml, 0 hours) was 98% and the “% Viability” value (CEM cells; 10 μg/ml, 24 hours) was 97%. The “% Viability” value (CEM cells; 10 μg/ml, 48 hours) was 98%, the “% Viability” value (CEM cells; 10 μg/ml, 72 hours) was 98% and the “% Viability” value (CEM cells; 40 μg/ml, 0 hours) was 98%. The “% Viability” value (CEM cells; 40 μg/ml, 24 hours) was 97%, the “% Viability” value (CEM cells; 40 μg/ml, 48 hours) was 95% and the “% Viability” value (CEM cells; 40 μg/ml, 72 hours) was 97%. For the same substance, the “cytotoxic effects on cells in culture” value (CEM cells; CEM cells, up to 40 μg/ml, 3 days) was “non-cytotoxic; also recorded: no cytotoxic effects” and the Kd [7] was 10 nM.
